Where two headings read alike, the source gives them in different places.
Legend:
Human plasmin = Human plasmin (Homo sapiens, UniProt P00747); test: Plasmin inhibition after addition of the synthetic substrate; assay type: biochemical; details: 50 μg/ml
Description: Thereafter, either synthetic substrate, especially “Val-Leu-paranitroanilide”, a product of Chromogenix, or natural pro-MMP3 obtained from Merck-Eurolab was added to the mixture. In the case of the synthetic substrate, absorption at 405 nm was measured every 5 minutes over a period of 30 minutes and the release of paranitroanilines was thus determined.
The inhibition of enzymatic activity was tested against a control with no substrate and against a reference substance, more particularly Aprotinine, a product of Sigma.

xanthine oxidase = test: Luminol Test with xanthine oxidase (biochemical test)
Text: (§1) The first test substrate selected was diphenyl picryl hydrazyl (DPPH), a purple-red colored stable radical which changes into its colorless leuco derivative on contact with radical trappers. The change of color can be followed photometrically. The test results are set out in Table 3 (DPPH Test). In another test, the hydroxylation of salicylic acid by hydroxyl radicals (from the reaction of hydrogen peroxide with iron(III) ions and EDTA) was investigated as a reference system. This reaction can also be photometrically investigated because the hydroxylation product is reddish in color. The influence of the extracts on the formation of hydroxysalicylic acid was measured at an optical density of 490 nm. In a third and final test, xanthine oxidase was selected as the test system. Under oxidative tress, the enzyme converts purine bases, for example adenine or guanine, into […]. The oxygen radicals intermediately formed can be detected by reaction with luminol (via the luminescence) and quantitatively determined. The luminescence output diminishes in the presence of substances with radical-trapping properties.

[1] = DPPH Test (chemical test, activity towards free radicals)
Text: as §1

human fibroblasts [2] = assay type: cell-based
Description: Human fibroblasts were inoculated with 10% by weight fetal calf serum in a defined nutrient medium (DMEM=Dulbecco Minimum Essential Medium, a product of Life Technologie S.a.r.l.) and incubated for 24 h at 37° C. in a 5% CO2 atmosphere. The nutrient medium containing fetal calf serum was then replaced by a nutrient medium of DMEM without fetal calf serum. Active substance in the form of the two extracts of the pericarp of Litchi chinensis Sonn. was then added to this nutrient medium in various concentrations.

[3] = Luminol + microperoxydase (biochemical test)
[4] = Fenton's reaction: hydroxylation of salicylic acid by hydroxyl radicals; details: formation of hydroxysalicylic acid, optical density 490 nm
Text: as §1

[5] = system: human leucocytes (neutrophilic granulocytes); test: Anti-inflammatory activity: respiratory burst, released oxygen radicals; assay type: cell-based; details: 0.001% by weight
Description: Method: Anti-inflammatory activity was studied on a cell line of human leucocytes (neutrophilic granulocytes). To this end, the cells were incubated with various concentrations of extracts of Example 1 to be tested, after which a respiratory burst was induced by yeast cell extract (“zymosan”) by activation of the cells for 30 mins. with 0.1 ml zymosan. The content of oxygen radicals intermediately formed was determined for 60 seconds by reaction with luminol via the luminescence and quantitatively evaluated. The luminescence yield falls in the presence of substances with radical-trapping properties. The percentage of released radicals was determined against a reference substance (Minocycline—a radical trapper). The results are expressed in % relative to the control. For control purposes, the number of intact cells was determined with a particle counter and is shown in % by comparison with the control.

human keratinocytes = test: Cell protecting effect against UV-B in human keratinocytes cultivated in vitro; assay type: cell-based; details: UV-B 50 mJ/cm^2; 0.001% substance; level in % by comparison with the control
Description: Method: The effect of UV-B radiation was investigated in vitro in keratinocytes by determining the release of the cytoplasm enzyme LDH (lactate dehydrogenase). This enzyme serves as a marker for cell damage.
To carry out the tests, a defined medium containing fetal calf serum was inoculated with the keratinocytes and the plant extract (diluted with saline solution) was added 72 hours after the inoculation.
The keratinocytes were then exposed to a dose of UV-B (50 mJ/cm^2-tubes: DUKE FL40E).
After incubation for another day at 37° C./5% CO2, the LDH content in the supernatant was determined. The LDH (lactate dehydrogenase) content was determined by an enzyme reaction (kit used to determine LDH levels from Roche). The number of adhering keratinocytes was determined (after trypsin treatment) with a particle counter.

elastase = test: Inhibition of elastase activity; assay type: biochemical; details: concentration 0.1 % (w/v)
Description: Serine proteases, such as elastase for example, degrade elastin, proteoglycans and collagen and thus weaken the connective tissue. […] The incubation time was 30 mins. at room temperature. The inhibition was followed photometrically at 410 nm; 1′α1-antitrypsin was used as positive standard.

MMP-1 = test: Inhibition of collagenase synthesis: MMP-1 poured out by fibroblasts; assay type: cell-based, human; details: 0.1 μm
Description: (§2) This test is used to evaluate the ability of the litchi extract to reduce the toxic effects of UV-A radiation on human fibroblasts cultivated in vitro. To this end, both the quantity of the enzyme MMP-1 (matrix metalloproteinase) poured out and the quantity of the natural enzyme inhibitor TIMP-1 are determined. UV-A radiation is used in this test because it can penetrate into the dermis and induce oxidative stress which leads to ageing of the skin.
(§3) To this end, the fibroblasts are cultivated in a precisely defined medium containing fetal calf serum. […] After further incubation for one day at 37° C./5% CO2, the culture medium is replaced by a salt solution and the fibroblasts are exposed to UV-A (15 J/cm^2, lamp: SOL500, Dr. Höhnle. filter: H1, radiometer: Vibert Lourmat). After the exposure, the fibroblasts are incubated for another two days. The MMO-1 and TIMP-1 contents of the supernatant medium are determined with an Amersham test kit (Kit No. RPN2610 and RPN2611). No extract was added to the control.

TIMP-1 = TIMP-1 poured out by fibroblasts; assay type: cell-based, human; details: concentration not printed in this line
Description: as §2, §3

human MMP-1 = biological target: T1, human MMP-1 (Homo sapiens, UniProt P03956); test: Inhibition of collagenase activity (MMP-1); assay type: biochemical; details: concentration 50 nmol
T1 sequence (P03956 100-469): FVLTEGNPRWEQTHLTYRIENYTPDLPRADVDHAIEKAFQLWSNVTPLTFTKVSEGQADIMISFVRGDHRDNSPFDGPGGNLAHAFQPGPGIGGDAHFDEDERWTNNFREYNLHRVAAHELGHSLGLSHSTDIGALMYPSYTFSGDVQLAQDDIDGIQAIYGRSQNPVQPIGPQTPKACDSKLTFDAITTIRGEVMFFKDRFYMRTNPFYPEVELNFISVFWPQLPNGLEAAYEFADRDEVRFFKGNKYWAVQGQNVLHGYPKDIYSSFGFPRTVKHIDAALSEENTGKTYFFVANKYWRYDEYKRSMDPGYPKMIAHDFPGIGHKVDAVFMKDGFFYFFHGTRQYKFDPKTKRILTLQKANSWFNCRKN
Description: After exposure to the sun, dermal fibroblasts of elderly people pour out collagenases—also known as matrix metalloprotease (MMP). […] The incubation time was 60 mins. at room temperature. The hydrolysis of the substrate was determined by fluorescence spectrometry at λem=393 nm (λex=328 nm). The […] TIMP-1 (MMP inhibitor occurring naturally in tissue) was used as the comparison standard.

human fibroblasts [6] = test: Cell protecting effect against UV-A on human fibroblasts cultivated in vitro; assay type: cell-based; details: UV-A 20 J/cm^2; 0.0003% substance; level in % by comparison with the control
Description: Method: To carry out these tests, a defined culture medium containing the fibroblasts is inoculated with foetal calf serum and added to the plant extract (in the defined medium containing 10% fetal calf serum) 72 hours after inoculation.
After incubation for 48 hours at 37° C./5% CO2, the culture medium was replaced by saline solution (physiological NaCl solution) and the fibroblasts were exposed to a dose of UV-A (365 nm, 20 J/cm^2; tubes: MAZDA FLUOR TFWN40).
After the exposure to UV-A, the MDA level (malonaldialdehyde level) in the supernatant sodium chloride solution was quantitatively determined by reaction with thiobarbituric acid.

[7] = After exposure to UV-A (15 J/cm^2)

Chain of Human plasmin (P00747 581-810 limits assumed): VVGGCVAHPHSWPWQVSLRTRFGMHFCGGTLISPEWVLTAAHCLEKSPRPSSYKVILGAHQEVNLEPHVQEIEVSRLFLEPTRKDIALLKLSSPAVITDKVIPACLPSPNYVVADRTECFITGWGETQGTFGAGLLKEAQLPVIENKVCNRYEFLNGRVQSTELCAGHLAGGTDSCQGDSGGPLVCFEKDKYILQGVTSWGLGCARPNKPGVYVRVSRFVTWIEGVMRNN
Chain of Human plasmin (P00747 97-580 partner limits assumed): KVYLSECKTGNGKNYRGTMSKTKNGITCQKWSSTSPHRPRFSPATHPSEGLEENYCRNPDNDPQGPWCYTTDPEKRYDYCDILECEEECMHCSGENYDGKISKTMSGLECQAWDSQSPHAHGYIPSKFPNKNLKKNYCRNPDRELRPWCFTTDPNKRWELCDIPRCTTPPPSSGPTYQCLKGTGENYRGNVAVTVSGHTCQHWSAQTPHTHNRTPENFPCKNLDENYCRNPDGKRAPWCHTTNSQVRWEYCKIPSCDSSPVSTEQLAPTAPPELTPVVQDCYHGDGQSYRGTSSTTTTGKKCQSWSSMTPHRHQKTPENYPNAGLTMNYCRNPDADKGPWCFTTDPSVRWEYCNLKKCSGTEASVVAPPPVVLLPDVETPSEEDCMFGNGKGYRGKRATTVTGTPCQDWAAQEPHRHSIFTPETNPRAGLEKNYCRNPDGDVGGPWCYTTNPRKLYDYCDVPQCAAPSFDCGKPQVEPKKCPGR

## Aprotinine
Human plasmin
  % Inhibition compared with the control (plasmin): 100%

## O=C1O[C@H]([C@@H](O)CO)C(O)=C1O [Ascorbic acid]
Xanthine oxidase
  EC50 in %, Luminol: 0.0006%
[1]
  EC50 in %, DPPH Test: 0.0013%
Human fibroblasts [2]; human fibroblasts, 3 days, intracellular ATP content
  LD50 in % (w/v), ATP: 0.0056 % (w/v)
Human fibroblasts [2]; human fibroblasts, 3 days, protein content (Bradford)
  LD50 in % (w/v), Proteins: 0.0055 % (w/v)
NBT (biochemical test)
  EC50 in %, NBT: 0.5909%
[3]
  EC50 in %, Luminol + microperoxydase: 0.0058%
[4]
  EC50 in %, Fenton's reaction: 0.1%

## CN(C)c1ccc(O)c2c1C[C@H]1C[C@H]3[C@H](N(C)C)C(O)=C(C(N)=O)C(=O)[C@@]3(O)C(O)=C1C2=O [Minocycline]
[5]; in % by comparison with the control
  No. of intact cells: 100%
[5]; zymosan-induced respiratory burst
  ROS content (%/control): 28 %/control

## CC(=O)Oc1ccccc1C(=O)O [aspirin]
Human keratinocytes
  LDH released: 68%
  No. of keratinocytes: 33%

## 1′α1-Antitrypsin: natural elastase inhibitor used as positive standard
elastase
  Elastase inhibition in %: 68%

## C[C@@H]1C[C@H]2[C@@H]3CCC4=CC(=O)C=C[C@]4(C)[C@@]3(F)[C@@H](O)C[C@]2(C)[C@@]1(O)C(=O)CO [Dexamethasone]
MMP-1; [7]
  MMP-1 poured out: 7 ng/mL
MMP-1; Without exposure to UV-A
  MMP-1 poured out: 2 ng/mL
TIMP-1; [7]
  TIMP-1 poured out: 19 ng/mL
TIMP-1; Without exposure to UV-A
  TIMP-1 poured out: 39 ng/mL

## TIMP-1: MMP inhibitor occurring naturally in tissue, used as the comparison standard
Human MMP-1
  MMP-1 Inhibition in %: 93%

## tocopherol
Xanthine oxidase
  EC50 in %, Luminol: No effect up
Human fibroblasts [6]
  Cell proteins: 97%
  GSH/protein: 78%
  MDA released: 11%
[1]
  EC50 in %, DPPH Test: 0.0067%
Human fibroblasts [2]
  LD50 in % (w/v), ATP: Nt toxic up
  LD50 in % (w/v), Proteins: Not toxic up
NBT (biochemical test)
  EC50 in %, NBT: No effect up
[3]
  EC50 in %, Luminol + microperoxydase: No effect up

From US7651692B2, “Use of extracts of the plant Litchi chinensis sonn” (Cognis France S.A., priority 2001, dated 2010)
